Columns and labels:
[1] = LD50 acute toxicity, mouse (Litchfield and Wilcoxon method); conditions: in vivo
From the text: (§1) As known, carnitine contains an asimmetric atom and consequently exists in two stereoisomers. […] Thus, the LD50 in rats and mice assessed for various routes of administration according to the Litchfield and Wilcoxon method is as shown in the following Table A. (Litchfield, J. T., and Wilcoxon, F., J. Pharm. Exptl. Therap. 96, 99. 1949).

[2] = LD50 acute toxicity, rat (Litchfield and Wilcoxon method); conditions: in vivo
From the text: as §1

[3] = Activity and toxicity comparison of carnitine isomers (in words); conditions: isomers of carnitine compared
From the text: as §1

[4] = Effective utilization of exogenous glycerides on daily carnitine dosing; format: in vivo, patient
Experimental: The dose of carnitine which is administered will be determined by the attending physician having regard to the age, weight and condition of the patient, using sound professional judgement. Although effective utilization of exogenous glycerides can be noticed at doses as low as from 30 to 50 mg/kg of body weight daily, a dose of from about 150 to about 200 mg/kg of body weight daily is preferred.

## C[N+](C)(C)CC(O)CC(=O)[O-] (racemic) [D,L-carnitine]
[1]; iv
  LD50: 610 mg/kg
[1]; sc
  LD50: 6000 mg/kg
[2]; iv
  LD50: 995 mg/kg

## C[N+](C)(C)C[C@@H](O)CC(=O)[O-] [D-carnitine]
[3]
  toxicity of the isomer: slightly more toxic
[1]; sc
  LD50: 5400 mg/kg
[2]; sc
  LD50: 10000 mg/kg

## C[N+](C)(C)C[C@H](O)CC(=O)[O-] [L-carnitine]
[3]
  activity of the isomer: more active
[1]; sc
  LD50: 7000 mg/kg

## C[N+](C)(C)CC(O)CC(=O)[O-] (stereo not shown) [carnitine]
[4]; Homo sapiens, daily carnitine dose, read-out: dose at which effective utilization of exogenous glycerides can be noticed
  minimal effective dose: 30 to 50 mg/kg/day
[4]; in vivo
  toxicity of carnitine: extremely low toxicity

Reference: patent US4254147A, “Pharmaceutical composition for total parenteral nutrition” (priority 1978, dated 1981)
